Measurements reported in the supplement of paper PMC10307832.

What was measured:
Assay in all cases: relative viability (nuclei count vs DMSO), 5 days (fraction); higher = more cells survive
NCI-H1944 = system: NCI-H1944
Procedure, shortened: (§1)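 A single step with final 0.05% Triton X-100, 1% formaldehyde and 1 ug/ml Hoechst fixed the cells and stained nuclei 5 days after treatment. Lung cancer cell lines in 1536-well plates had been treated by pin tool the day after seeding with one drug alone or a fixed anchor-drug dose plus five library-drug doses (not always all listed) in √10 steps, and nuclei were counted on 4× images. Relative viability is the ratio of nuclei in treated wells to nuclei in vehicle wells, taken as the median of duplicate plates.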

NCI-H520 = system: NCI-H520
Procedure, shortened: as §1

HCC-827 = system: HCC-827
Procedure, shortened: as §1

EMC-BAC-2 = system: EMC-BAC-2
Procedure, shortened: as §1

NCI-H1563 = system: NCI-H1563
Procedure, shortened: as §1

LCLC-97TM1 = system: LCLC-97TM1
Procedure, shortened: as §1

NCI-H2085 = system: NCI-H2085
Procedure, shortened: as §1

NCI-H23 = system: NCI-H23
Procedure, shortened: as §1

HCC-44 = system: HCC-44
Procedure, shortened: as §1

NCI-H650 = system: NCI-H650
Procedure, shortened: as §1

NCI-H1993 = system: NCI-H1993
Procedure, shortened: as §1

NCI-H1793 = system: NCI-H1793
Procedure, shortened: as §1

NCI-H2087 = system: NCI-H2087
Procedure, shortened: as §1

NCI-H322M = system: NCI-H322M
Procedure, shortened: as §1

EPLC-272H = system: EPLC-272H
Procedure, shortened: as §1

NCI-H1355 = system: NCI-H1355
Procedure, shortened: as §1

H3255 = system: H3255
Procedure, shortened: as §1

NCI-H2405 = system: NCI-H2405
Procedure, shortened: as §1

UMC-11 = system: UMC-11
Procedure, shortened: as §1

LCLC-103H = system: LCLC-103H
Procedure, shortened: as §1

SK-MES-1 = system: SK-MES-1
Procedure, shortened: as §1

NCI-H1651 = system: NCI-H1651
Procedure, shortened: as §1

NCI-H1395 = system: NCI-H1395
Procedure, shortened: as §1

Work on `CC(C)Oc1cc(Nc2nc(N[C@@H](C)c3ccc(F)cn3)ncc2Cl)n[nH]1` [AZ23] + C[C@]1(O)C[C@@H](c2nc(-c3ccc4ccc(-c5ccccc5)nc4c3)c3c(N)nccn32)C1 [Linsitinib] (partner 1 µM) yielded a relative viability (NCI-H1944; first compound 0.01 µM) of 1.12, a relative viability (NCI-H1944; first compound 0.03162 µM) of 1.18 and a relative viability (NCI-H1944; first compound 0.3162 µM) of 1.26. It also gave a relative viability (NCI-H520; first compound 0.01 µM) of 1.18, a relative viability (NCI-H520; first compound 0.03162 µM) of 1.04 and a relative viability (NCI-H520; first compound 0.3162 µM) of 0.921. It also gave a relative viability (HCC-827; first compound 0.01 µM) of 1, a relative viability (HCC-827; first compound 0.03162 µM) of 1.04 and a relative viability (HCC-827; first compound 0.3162 µM) of 0.93. The relative viability (EMC-BAC-2; first compound 0.01 µM) was 1.09, the relative viability (EMC-BAC-2; first compound 0.03162 µM) was 0.814 and the relative viability (EMC-BAC-2; first compound 0.3162 µM) was 0.884. It also gave a relative viability (NCI-H1563; first compound 0.01 µM) of 1.14, a relative viability (NCI-H1563; first compound 0.03162 µM) of 1.19 and a relative viability (NCI-H1563; first compound 0.3162 µM) of 1.08. It also gave a relative viability (LCLC-97TM1; first compound 0.01 µM) of 0.185, a relative viability (LCLC-97TM1; first compound 0.03162 µM) of 0.17 and a relative viability (LCLC-97TM1; first compound 0.3162 µM) of 0.168. It also gave a relative viability (NCI-H2085; first compound 0.01 µM) of 1.03, a relative viability (NCI-H2085; first compound 0.03162 µM) of 1.02 and a relative viability (NCI-H2085; first compound 0.3162 µM) of 0.761. It also gave a relative viability (NCI-H23; first compound 0.03162 µM) of 0.697, a relative viability (NCI-H23; first compound 0.3162 µM) of 0.596 and a relative viability (HCC-44; first compound 0.01 µM) of 0.684. The relative viability (HCC-44; first compound 0.03162 µM) was 0.74, the relative viability (HCC-44; first compound 0.3162 µM) was 0.632 and the relative viability (NCI-H650; first compound 0.01 µM) was 0.648. The relative viability (NCI-H650; first compound 0.03162 µM) was 0.893, the relative viability (NCI-H650; first compound 0.3162 µM) was 0.857 and the relative viability (NCI-H1993; first compound 0.01 µM) was 0.801. It also gave a relative viability (NCI-H1993; first compound 0.3162 µM) of 0.724, a relative viability (NCI-H1793; first compound 0.01 µM) of 1.04 and a relative viability (NCI-H1793; first compound 0.03162 µM) of 0.983. For the same compound, the relative viability (NCI-H1793; first compound 0.3162 µM) was 0.952, the relative viability (NCI-H2087; first compound 0.01 µM) was 1.34 and the relative viability (NCI-H2087; first compound 0.03162 µM) was 1.06. For the same compound, the relative viability (NCI-H2087; first compound 0.3162 µM) was 0.955, the relative viability (NCI-H322M; first compound 0.01 µM) was 0.919 and the relative viability (NCI-H322M; first compound 0.03162 µM) was 0.957. For the same compound, the relative viability (NCI-H322M; first compound 0.3162 µM) was 1.13, the relative viability (EPLC-272H; first compound 0.01 µM) was 1.26 and the relative viability (EPLC-272H; first compound 0.03162 µM) was 1.22. For the same compound, the relative viability (NCI-H1355; first compound 0.01 µM) was 0.909, the relative viability (NCI-H1355; first compound 0.03162 µM) was 0.784 and the relative viability (NCI-H1355; first compound 0.3162 µM) was 0.724. The relative viability (H3255; first compound 0.01 µM) was 1.03, the relative viability (H3255; first compound 0.03162 µM) was 1.08 and the relative viability (H3255; first compound 0.3162 µM) was 0.985. The relative viability (NCI-H2405; first compound 0.01 µM) was 0.976, the relative viability (NCI-H2405; first compound 0.03162 µM) was 0.902 and the relative viability (NCI-H2405; first compound 0.3162 µM) was 0.873. For the same compound, the relative viability (UMC-11; first compound 0.01 µM) was 1.04, the relative viability (UMC-11; first compound 0.03162 µM) was 1.04 and the relative viability (UMC-11; first compound 0.3162 µM) was 1.01. It also gave a relative viability (LCLC-103H; first compound 0.01 µM) of 1.07, a relative viability (LCLC-103H; first compound 0.03162 µM) of 1.03 and a relative viability (LCLC-103H; first compound 0.3162 µM) of 1.15. For the same compound, the relative viability (SK-MES-1; first compound 0.01 µM) was 1.09, the relative viability (SK-MES-1; first compound 0.03162 µM) was 1.16 and the relative viability (SK-MES-1; first compound 0.3162 µM) was 1.12. It also gave a relative viability (NCI-H1651; first compound 0.01 µM) of 0.691, a relative viability (NCI-H1651; first compound 0.03162 µM) of 1 and a relative viability (NCI-H1651; first compound 0.3162 µM) of 1.18. For the same compound, the relative viability (NCI-H1395; first compound 0.03162 µM) was 1.09 and the relative viability (NCI-H1395; first compound 0.3162 µM) was 0.975.
